Source: patent US20240409585A1, “MACROCYCLIC IMMUNOMODULATORS” (priority 2021, published 2024)
Numbered stars: 1 amine (or outer) side, 2 acyl side, 3 side chain; on linkers, the order of the positions; unused ones are H or OH. Bridge positions count the residues as written; N and C are the ends. Square brackets hold non-standard residues; d marks the D form. Peptide text beside a SMILES is read from it. * marks the point of attachment. ξ: configuration not given here. Gly(1-amidinopiperidin-4-yl) = N=C(N)N1CCC([C@H](N)C(=O)O)CC1; Ala(4-isoquinolinyl) = N[C@@H](Cc1cncc2ccccc12)C(=O)O; Phe(4-CONH2) = NC(=O)c1ccc(C[C@H](N)C(=O)O)cc1; Bip = N[C@@H](Cc1ccc(-c2ccccc2)cc1)C(=O)O; Phe(3-CN) = N#Cc1cccc(C[C@H](N)C(=O)O)c1; X37 = O=C([C@H](Cc1cn[nH]c1)N[*:1])[*:2]; Phe(3-F) = N[C@@H](Cc1cccc(F)c1)C(=O)O; Phe(3-Me) = Cc1cccc(C[C@H](N)C(=O)O)c1; Val(3-OH) = CC(C)(O)[C@H](N)C(=O)O; hArg = N=C(N)NCCCC[C@H](N)C(=O)O; 4Pal = N[C@@H](Cc1ccncc1)C(=O)O; Cha = N[C@@H](CC1CCCCC1)C(=O)O; Cit = NC(=O)NCCC[C@H](N)C(=O)O; Ile(3ξ) = CCC(C)[C@H](N)C(=O)O; Thr(3ξ) = CC(O)[C@H](N)C(=O)O; Pen = CC(C)(S)[C@H](N)C(=O)O; Carboxymethyl = O=C(O)C*; NMeA = CN[C@@H](C)C(=O)O; Dab = NCC[C@H](N)C(=O)O; Dap = NC[C@H](N)C(=O)O; ξC = NC(CS)C(=O)O; Acm = CC(=O)NC*

The compounds below were run against T1, PE-labeled human PD-L1-Ig binding to Jurkat cell line over-expressing human PD-1 (Jurkat-PD-1) (Homo sapiens, UniProt Q15116) (assay: Jurkat-PD-1 Cell Binding High-Content Screening Assay (CBA): Method 1). Conditions: Jurkat-hPD-1 cells, PE-labeled PD-L1-Ig 20 nM final; read-out: Jurkat HPDL1 PD1 IC50 (uM) (Method 1).
T1 construct: expressed in transfected cells; host or cells: Jurkat
T1 sequence (Q15116 25-288): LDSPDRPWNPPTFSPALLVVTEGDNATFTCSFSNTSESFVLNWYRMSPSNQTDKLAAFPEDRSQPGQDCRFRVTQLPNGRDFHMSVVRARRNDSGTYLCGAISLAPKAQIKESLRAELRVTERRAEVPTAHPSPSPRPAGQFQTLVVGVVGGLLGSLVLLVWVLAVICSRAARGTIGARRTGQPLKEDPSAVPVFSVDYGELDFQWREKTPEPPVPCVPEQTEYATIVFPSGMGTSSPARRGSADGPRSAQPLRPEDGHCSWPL

Row | Compound | IC50 [µM]
1 | CC(C)C[C@@H]1NC(=O)[C@H](CCN)NC(=O)[C@@H](CC(C)C)NC(=O)[C@H](C)N(C)C(=O)[C@H](CCCNC(=N)N)NC(=O)[C@H](Cc2ccc(-c3ccccc3)cc2)NC(=O)[C@H](C(C)C)NC(=O)[C@H](Cc2c[nH]c3ccccc23)NC(=O)[C@H](CC(=O)O)NC(=O)[C@H](Cc2ccc(O)cc2)NC(=O)[C@H](Cc2cn[nH]c2)NC(=O)CSC[C@@H](C(=O)N[C@@H](C)C(N)=O)NC(=O)[C@H]([C@@H](C)O)NC(=O)[C@H](C(C)C)NC1=O [Compound 1159] ({CH2CO}-[X37]YDWV[Bip]R[NMeA][dL][Dab]LVTCA-NH2; thioether N-14) | 0.07
2 | CC(=O)NCSC[C@@H]1NC(=O)[C@H](CC(C)C)NC(=O)[C@H](CC(N)=O)NC(=O)[C@@H](CC(C)C)NC(=O)[C@H](C)N(C)C(=O)[C@H](CSCNC(C)=O)NC(=O)[C@H](Cc2ccc(-c3ccccc3)cc2)NC(=O)[C@H](CC(C)C)NC(=O)[C@H](Cc2cccc(C)c2)NC(=O)[C@H](CC(=O)O)NC(=O)[C@H](Cc2ccncc2)NC(=O)[C@H](Cc2ccc(OCC(=O)O)cc2)NC(=O)CSCC(C(=O)NCC(N)=O)NC(=O)[C@H](CO)NC1=O (stereo partly drawn) [Compound 1886] ({CH2CO}-Y(Carboxymethyl)[4Pal]D[Phe(3-Me)]L[Bip]C(Acm)[NMeA][dL]NLC(Acm)S[ξC]G-NH2; thioether N-14) | 0.14
3 | CC(C)C[C@@H]1NC(=O)[C@H](CCCCN)NC(=O)[C@@H](CC(C)C)NC(=O)[C@H](C)N(C)C(=O)[C@H](CCCNC(=N)N)NC(=O)[C@H](Cc2ccc(-c3ccccc3)cc2)NC(=O)[C@H](C(C)C)NC(=O)[C@H](Cc2c[nH]c3ccccc23)NC(=O)[C@H](CC(=O)O)NC(=O)[C@H](Cc2ccc(O)cc2)NC(=O)[C@H](CC(N)=O)NC(=O)CSC[C@@H](C(=O)N[C@@H](CO)C(N)=O)NC(=O)[C@H]([C@@H](C)O)NC(=O)[C@H](C(C)C)NC1=O [Compound 1174] ({CH2CO}-NYDWV[Bip]R[NMeA][dL]KLVTCS-NH2; thioether N-14) | 0.06
4 | CC(C)C[C@@H]1NC(=O)[C@H](CCN)NC(=O)[C@@H](CC(C)C)NC(=O)[C@H](C)N(C)C(=O)[C@H](CCCNC(=N)N)NC(=O)[C@H](Cc2ccc(-c3ccccc3)cc2)NC(=O)[C@H](C(C)C)NC(=O)[C@H](Cc2c[nH]c3ccccc23)NC(=O)[C@H](CC(=O)O)NC(=O)[C@H](Cc2ccc(O)cc2)NC(=O)[C@H](CCCCNC(=N)N)NC(=O)CSC[C@@H](C(=O)N[C@@H](C)C(N)=O)NC(=O)[C@H]([C@@H](C)O)NC(=O)[C@H](C(C)C)NC1=O [Compound 1344] ({CH2CO}-[hArg]YDWV[Bip]R[NMeA][dL][Dab]LVTCA-NH2; thioether N-14) | 0.07
5 | Cc1cccc(C[C@@H]2NC(=O)[C@H](CC(=O)O)NC(=O)[C@H](Cc3ccc(OCC(=O)O)cc3)NC(=O)[C@H](CN)NC(=O)CSC[C@@H](C(N)=O)NC(=O)[C@H](CC(N)=O)NC(=O)[C@H](C(C)C)NC(=O)[C@H](CC3CCCCC3)NC(=O)[C@H](CCN)NC(=O)[C@@H](CC(C)C)NC(=O)[C@H](C)N(C)C(=O)[C@H](Cc3ccc(OCC(=O)O)cc3)NC(=O)[C@H](Cc3ccc(-c4ccccc4)cc3)NC(=O)[C@H](Cc3ccc(OCC(=O)O)cc3)NC2=O)c1 [Compound 1648] ({CH2CO}-[Dap]Y(Carboxymethyl)D[Phe(3-Me)]Y(Carboxymethyl)[Bip]Y(Carboxymethyl)[NMeA][dL][Dab][Cha]VNC-NH2; thioether N-14) | 0.03
6 | CC(C)C[C@@H]1NC(=O)[C@H](Cc2c[nH]c3ccccc23)NC(=O)[C@H](CC(=O)O)NC(=O)[C@H](Cc2ccc(O)cc2)NC(=O)[C@H](Cc2ccccc2)NC(=O)CSC[C@@H](C(=O)NCC(N)=O)NC(=O)[C@H](CO)NC(=O)[C@H](C(C)C)NC(=O)[C@H](CC(C)C)NC(=O)[C@H](CC(N)=O)NC(=O)[C@@H](CC(C)C)NC(=O)[C@H](C)N(C)C(=O)[C@H](CCC(=O)O)NC(=O)[C@H](Cc2ccc(-c3ccccc3)cc2)NC1=O [Compound 1510] ({CH2CO}-FYDWL[Bip]E[NMeA][dL]NLVSCG-NH2; thioether N-14) | 0.06
7 | CCNC(=O)[C@H](CCN)NC(=O)[C@@H]1CSCC(=O)N[C@@H](Cc2ccncc2)C(=O)N[C@@H](Cc2cccc(C#N)c2)C(=O)N[C@@H](CC(=O)O)C(=O)N[C@@H](Cc2cccc(C)c2)C(=O)N[C@@H](Cc2cccc(F)c2)C(=O)N[C@@H](Cc2ccc(-c3ccccc3)cc2)C(=O)N[C@@H](Cc2ccc(OCC(=O)O)cc2)C(=O)N(C)[C@@H](C)C(=O)N[C@H](CC(C)C)C(=O)N[C@@H](CCN)C(=O)N[C@@H](CC2CCCCC2)C(=O)N[C@@H](C(C)(C)O)C(=O)N[C@@H](CO)C(=O)N1 [Compound 1843] ({CH2CO}-[4Pal][Phe(3-CN)]D[Phe(3-Me)][Phe(3-F)][Bip]Y(Carboxymethyl)[NMeA][dL][Dab][Cha][Val(3-OH)]SC[Dab]-NHEt; thioether N-14) | 0.01
8 | CCC(C)[C@@H]1NC(=O)[C@H](Cc2ccc(-c3ccccc3)cc2)NC(=O)[C@H](C(C)C)NC(=O)[C@H](Cc2c[nH]c3ccccc23)NC(=O)[C@H](CC(=O)O)NC(=O)[C@H](Cc2ccc(OCC(=O)O)cc2)NC(=O)[C@H](C(C)O)NC(=O)CSC[C@@H](C(N)=O)NC(=O)[C@H](C(C)O)NC(=O)[C@H](C(C)C)NC(=O)[C@H](CC2CCCCC2)NC(=O)[C@H](CCN)NC(=O)[C@@H](CC(C)C)NC(=O)[C@H](C)N(C)C1=O (stereo partly drawn) [Compound 2248] ({CH2CO}-[Thr(3ξ)]Y(Carboxymethyl)DWV[Bip][Ile(3ξ)][NMeA][dL][Dab][Cha]V[Thr(3ξ)]C-NH2; thioether N-14) | 0.04
9 | CC(C)C[C@@H]1NC(=O)[C@H](Cc2c[nH]c3ccccc23)NC(=O)[C@H](CC(=O)O)NC(=O)[C@H](Cc2ccc(O)cc2)NC(=O)[C@H](CC(N)=O)NC(=O)CSC[C@@H](C(=O)N[C@@H](C)C(N)=O)NC(=O)[C@H](CO)NC(=O)[C@H](C(C)C)NC(=O)[C@H](CC(C)C)NC(=O)[C@H](CC(N)=O)NC(=O)[C@@H](C)NC(=O)[C@H](C)N(C)C(=O)[C@H](C(C)C)NC(=O)[C@H](Cc2ccc(-c3ccccc3)cc2)NC1=O [Compound 1762] ({CH2CO}-NYDWL[Bip]V[NMeA][dA]NLVSCA-NH2; thioether N-14) | 0.04
10 | Cc1cccc(C[C@@H]2NC(=O)[C@H](CC(=O)O)NC(=O)[C@H](Cc3ccc(O)cc3)NC(=O)[C@H](CC(N)=O)NC(=O)CSC[C@@H](C(=O)N[C@H](C)C(N)=O)NC(=O)[C@H]([C@@H](C)O)NC(=O)[C@H](C(C)(C)O)NC(=O)[C@H](CC3CCCCC3)NC(=O)[C@H](CCN)NC(=O)[C@@H](CC(C)C)NC(=O)[C@H](C)N(C)C(=O)[C@H](CCCNC(N)=O)NC(=O)[C@H](Cc3ccc(-c4ccccc4)cc3)NC(=O)[C@H](C(C)(C)O)NC2=O)c1 [Compound 1706] ({CH2CO}-NYD[Phe(3-Me)][Val(3-OH)][Bip][Cit][NMeA][dL][Dab][Cha][Val(3-OH)]TC[dA]-NH2; thioether N-14) | 0.12
11 | CC(C)C[C@@H]1NC(=O)[C@H](CCN)NC(=O)[C@@H](CC(C)C)NC(=O)[C@H](C)N(C)C(=O)[C@H](CCCNC(=N)N)NC(=O)[C@H](Cc2ccc(-c3ccccc3)cc2)NC(=O)[C@H](C(C)C)NC(=O)[C@H](Cc2cncc3ccccc23)NC(=O)[C@H](CC(=O)O)NC(=O)[C@H](Cc2ccc(O)cc2)NC(=O)[C@H](Cc2ccccc2)NC(=O)CSC[C@@H](C(=O)N[C@@H](C)C(N)=O)NC(=O)[C@H]([C@@H](C)O)NC(=O)[C@H](C(C)C)NC1=O [Compound 1200] ({CH2CO}-FYD[Ala(4-isoquinolinyl)]V[Bip]R[NMeA][dL][Dab]LVTCA-NH2; thioether N-14) | 0.49
12 | CCC(C)[C@@H]1NC(=O)[C@H](Cc2ccc(-c3ccccc3)cc2)NC(=O)[C@H](C(C)C)NC(=O)[C@H](Cc2c[nH]c3ccccc23)NC(=O)[C@H](CC(=O)O)NC(=O)[C@H](Cc2ccc(O)cc2)NC(=O)[C@H](C2CCN(C(=N)N)CC2)NC(=O)CSC[C@@H](C(=O)N[C@@H](C)C(N)=O)NC(=O)[C@H](C(C)O)NC(=O)[C@H](C(C)C)NC(=O)[C@H](CC2CCCCC2)NC(=O)[C@H](CCN)NC(=O)[C@@H](CC(C)C)NC(=O)[C@H](C)N(C)C1=O (stereo partly drawn) [Compound 2054] ({CH2CO}-[Gly(1-amidinopiperidin-4-yl)]YDWV[Bip][Ile(3ξ)][NMeA][dL][Dab][Cha]V[Thr(3ξ)]CA-NH2; thioether N-14) | 0.02
13 | CCC(C)[C@@H]1NC(=O)[C@H](Cc2ccc(-c3ccccc3)cc2)NC(=O)[C@H](C(C)C)NC(=O)[C@H](Cc2c[nH]c3ccccc23)NC(=O)[C@H](CC(=O)O)NC(=O)[C@H](Cc2ccc(OCC(=O)O)cc2)NC(=O)[C@H](CN)NC(=O)CSC[C@@H](C(=O)N[C@@H](C)C(N)=O)NC(=O)[C@H](C(C)O)NC(=O)[C@H](C(C)C)NC(=O)[C@H](CC(C)C)NC(=O)[C@H](CCN)NC(=O)[C@@H](CC(C)C)NC(=O)[C@H](C)N(C)C1=O (stereo partly drawn) [Compound 2084] ({CH2CO}-[Dap]Y(Carboxymethyl)DWV[Bip][Ile(3ξ)][NMeA][dL][Dab]LV[Thr(3ξ)]CA-NH2; thioether N-14) | 0.07
14 | Cc1cccc(C[C@@H]2NC(=O)[C@H](CC(=O)O)NC(=O)[C@H](Cc3ccc(OCC(=O)O)cc3)NC(=O)[C@H]([C@@H](C)O)NC(=O)CSC[C@@H](C(N)=O)NC(=O)[C@H](CC(N)=O)NC(=O)[C@H](C(C)C)NC(=O)[C@H](CC3CCCCC3)NC(=O)[C@H](CCN)NC(=O)[C@@H](CC(C)C)NC(=O)[C@H](C)N(C)C(=O)[C@H](Cc3ccc(OCC(=O)O)cc3)NC(=O)[C@H](Cc3ccc(-c4ccccc4)cc3)NC(=O)[C@H](Cc3ccc(OCC(=O)O)cc3)NC2=O)c1 [Compound 1669] ({CH2CO}-TY(Carboxymethyl)D[Phe(3-Me)]Y(Carboxymethyl)[Bip]Y(Carboxymethyl)[NMeA][dL][Dab][Cha]VNC-NH2; thioether N-14) | 0.06
15 | Cc1cccc(C[C@@H]2NC(=O)[C@H](CC(=O)O)NC(=O)[C@H](Cc3ccc(OCC(=O)O)cc3)NC(=O)[C@H](Cc3ccc(OCC(=O)O)cc3)NC(=O)CSC(C)(C)[C@@H](C(=O)N[C@H](C)C(N)=O)NC(=O)[C@H](CCCNC(N)=O)NC(=O)[C@H](C(C)C)NC(=O)[C@H](CC3CCCCC3)NC(=O)[C@H](CCN)NC(=O)[C@@H](CC(C)C)NC(=O)[C@H](C)N(C)C(=O)[C@H](Cc3cnc[nH]3)NC(=O)[C@H](Cc3ccc(-c4ccccc4)cc3)NC(=O)[C@H](Cc3ccc(C(N)=O)cc3)NC2=O)c1 [Compound 2126] ({CH2CO}-Y(Carboxymethyl)Y(Carboxymethyl)D[Phe(3-Me)][Phe(4-CONH2)][Bip]H[NMeA][dL][Dab][Cha]V[Cit][Pen][dA]-NH2; thioether N-14) | 0.66
